# Results reported in patent publication US10457644B2, “Pyrazol compounds as EAAT3 inhibitors” (Hoffmann-La Roche Inc., priority 2016, dated 2019).
# Columns and labels:
# human EAAT3 = target: T1, human EAAT3 (Homo sapiens, UniProt P43005); assay: FLIPR Membrane Potential (FMP) assay; format: cell-based; settings: HEK-293 cells stably expressing human EAAT3; L-glutamate as agonist at 80% of maximum response; antagonist applied 15 min before; Kb by Cheng-Prusoff from IC50
# T1 construct: expressed in transfected cells
# T1 sequence (P43005 1-524): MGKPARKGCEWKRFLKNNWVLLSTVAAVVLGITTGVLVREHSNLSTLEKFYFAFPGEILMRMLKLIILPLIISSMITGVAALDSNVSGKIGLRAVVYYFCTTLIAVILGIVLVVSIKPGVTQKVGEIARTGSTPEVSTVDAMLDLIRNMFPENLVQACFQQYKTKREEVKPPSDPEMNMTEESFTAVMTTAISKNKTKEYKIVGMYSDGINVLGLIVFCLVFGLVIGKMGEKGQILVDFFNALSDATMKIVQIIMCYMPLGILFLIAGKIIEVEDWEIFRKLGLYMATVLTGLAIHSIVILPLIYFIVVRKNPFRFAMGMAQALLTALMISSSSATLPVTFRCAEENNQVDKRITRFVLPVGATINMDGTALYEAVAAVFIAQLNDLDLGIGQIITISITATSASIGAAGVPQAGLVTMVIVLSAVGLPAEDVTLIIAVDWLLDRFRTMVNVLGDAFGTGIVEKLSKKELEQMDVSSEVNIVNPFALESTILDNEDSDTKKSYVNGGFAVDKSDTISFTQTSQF
# Experimental: The FLIPR Membrane Potential (FMP) Assay
# HEK-293 cells stably expressing human EAAT3 were seeded at 55 000 cells/well in growth medium (DMEM glutamate free (Invitrogen 11960-044), 1% Pen Strep (10 ml/l GIBCO BRL N^o 15140-023), 10% FCS non dialysed heat inactivated, 5 mg/l puromycin) in poly-D-lysine treated 96-well black microtiter plates with clear-bottom. After 24 h, the growth medium was removed and 100 μl/well of Krebs buffer (140 mM NaCl, 4.7 mM KCl, 2.5 mM CaCl2, 1.2 mM MgCl2, 11 mM HEPES, 10 mM D-glucose, pH=7.4) added. The cells were then loaded by adding 100 μl/well FMP assay dye (FLIPR Membrane Potential assay reagent, Molecular Devices). The 96-well plates were then incubated at 37° C. for 1 h. The depolarization of the cells will cause more dye to enter in the cells, where it will bind to intracellular proteins and lipids and cause an increase in the fluorescence signal. Antagonist potency at human EAAT3 was determined by using L-glutamate as agonist at a concentration which gives 80% of the maximum response. The antagonists were applied 15 min before the application of the agonist L-glutamate. The assays were performed at room temperature and measurements done by using a Fluorometric Imaging Plate Reader (FLIPR, Molecular Devices) and filter #2. Responses were measured as peak increase in fluorescence minus basal (i.e. fluorescence without addition of L-glutamate). Kb was determined using the Cheng-Prusoff equation Kb=IC50/[1+(A/EC50)], where IC50 is the concentration of the antagonist producing 50% inhibition, A is the concentration of the agonist against which the IC50 is being determined ([…]) and EC50 is the concentration of the agonist producing […].
Structure (SMILES),Kb (human EAAT3) [nM],melting point [°C]
"CC(C)n1nccc1-c1cc(C(=O)NC(C)(C)C)cc(-c2ccc(Cl)c(F)c2)c1 [Example 16, N-tert-Butyl-3-(4-chloro-3-fluoro-phenyl)-5-(2-propan-2-yl-pyrazol-3-yl)-benzamide]",310,87
"CC(C)(C)NC(=O)c1cc(-c2ccc(C(F)(F)F)cc2)cc(-c2ccnn2CC2CC2)c1 [Example 44, N-tert-Butyl-3-[2-(cyclopropylmethyl)-pyrazol-3-yl]-5-[4-(trifluoromethyl)-phenyl]-benzamide]",400,69
"Cn1nccc1-c1cc(C(=O)NC(C)(C)C)cc(-c2ccc(Cl)cc2)c1 [Example 1, N-tert-Butyl-3-(4-chlorophenyl)-5-(2-methyl-pyrazol-3-yl)-benzamide]",240,191
"CC(C)(C)NC(=O)c1cc(-c2ccc(F)c(F)c2)cc(-c2ccnn2C(C)(C)C)c1 [Example 36, N-tert-Butyl-3-(2-tert-butyl-pyrazol-3-yl)-5-(3,4-difluorophenyl)-benzamide]",440,197.5
"Cc1cc(-c2cc(C(=O)NC(C)(C)C)cc(-c3ccnn3C(C)(C)C)c2)ccc1F [Example 27, N-tert-Butyl-3-(2-tert-butyl-pyrazol-3-yl)-5-(4-fluoro-3-methyl-phenyl)-benzamide]",930,186
"CC(C)n1nccc1-c1cc(C(=O)NC(C)(C)C)cc(-c2ccc(C3CC3)cc2)c1 [Example 14, N-tert-Butyl-3-(4-cyclopropyl-phenyl)-5-(2-propan-2-yl-pyrazol-3-yl)-benzamide]",880,83
"CC(C)(C)NC(=O)c1cc(-c2ccc(C(F)(F)F)cc2)cc(-c2ccnn2C2CC2)c1 [Example 43, N-tert-Butyl-3-(2-cyclopropyl-pyrazol-3-yl)-5-[4-(trifluoromethyl)-phenyl]-benzamide]",320,72
"Cc1ccc(-c2cc(C(=O)NC(C)(C)C)cc(-c3ccnn3C(C)(C)C)c2)cc1 [Example 30, N-tert-Butyl-3-(2-tert-butyl-pyrazol-3-yl)-5-(4-methyl-phenyl)-benzamide]",370,193
"CC(C)(NC(=O)c1cc(-c2ccc(Cl)cc2)cc(-c2ccnn2C(C)(C)C)c1)C1CC1 [Example 35, 3-(2-tert-Butyl-pyrazol-3-yl)-5-(4-chlorophenyl)-N-(2-cyclopropyl-propan-2-yl)-benzamide]",920,166
"CC(C)c1ccc(-c2cc(C(=O)NC(C)(C)C)cc(-c3ccnn3C(C)(C)C)c2)cc1 [Example 34, N-tert-Butyl-3-(2-tert-butyl-pyrazol-3-yl)-5-(4-propan-2-yl-phenyl)-benzamide]",600,209.5
"CC(C)(C)NC(=O)c1cc(-c2ccccc2)cc(-c2ccnn2C(C)(C)C)c1 [Example 28, N-tert-Butyl-3-(2-tert-butyl-pyrazol-3-yl)-5-phenyl-benzamide]",470,199.5
"CC(C)n1nccc1-c1cc(C(=O)NC(C)(C)C)cc(-c2ccc(F)c(Cl)c2)c1 [Example 12, N-tert-Butyl-3-(3-chloro-4-fluorophenyl)-5-(2-propan-2-yl-pyrazol-3-yl)-benzamide]",610,81
"CC(C)(C)NC(=O)c1cc(-c2ccc(Cl)c(F)c2)cc(-c2ccnn2C(C)(C)C)c1 [Example 33, N-tert-Butyl-3-(2-tert-butyl-pyrazol-3-yl)-5-(4-chloro-3-fluoro-phenyl)-benzamide]",290,225
"CC(C)(C)NC(=O)c1cc(-c2ccc(C3CC3)cc2)cc(-c2ccnn2C(C)(C)C)c1 [Example 37, N-tert-Butyl-3-(2-tert-butyl-pyrazol-3-yl)-5-(4-cyclopropyl-phenyl)-benzamide]",1130,198.5
"CCn1nccc1-c1cc(C(=O)NC(C)(C)C)cc(-c2ccc(F)cc2)c1 [Example 47, N-tert-Butyl-3-(2-ethyl-pyrazol-3-yl)-5-(4-fluorophenyl)-benzamide]",110,162

# The remaining lines, values ahead:
Kb (human EAAT3) [nM],melting point [°C],Structure (SMILES)
3420,183.5,"CCC(C)(C)NC(=O)c1cc(-c2ccc(Cl)cc2)cc(-c2ccnn2C(C)(C)C)c1 [Example 18, 3-(2-tert-Butyl-pyrazol-3-yl)-5-(4-chlorophenyl)-N-(2-methyl-butan-2-yl)-benzamide]"
620,77.5,"CC(C)n1nccc1-c1cc(C(=O)NC(C)(C)C(F)(F)F)cc(-c2ccc(Cl)cc2)c1 [Example 40, 3-(4-Chlorophenyl)-5-(2-propan-2-yl-pyrazol-3-yl)-N-(1,1,1-trifluoro-2-methyl-propan-2-yl)-benzamide]"
890,72.5,"CCC(C)(C)NC(=O)c1cc(-c2ccc(Cl)cc2)cc(-c2ccnn2C(C)C)c1 [Example 19, 3-(4-Chlorophenyl)-N-(2-methyl-butan-2-yl)-5-(2-propan-2-yl-pyrazol-3-yl)-benzamide]"
270,80.5,"CC(C)n1nccc1-c1cc(C(=O)NC(C)(C)CO)cc(-c2ccc(Cl)cc2)c1 [Example 39, 3-(4-Chlorophenyl)-N-(1-hydroxy-2-methyl-propan-2-yl)-5-(2-propan-2-yl-pyrazol-3-yl)-benzamide]"
170,68,"CCn1nccc1-c1cc(C(=O)NC(C)(C)C)cc(-c2ccc(Cl)cc2)c1 [Example 24, N-tert-Butyl-3-(4-chlorophenyl)-5-(2-ethyl-pyrazol-3-yl)-benzamide]"
550,86,"CC(C)c1ccc(-c2cc(C(=O)NC(C)(C)C)cc(-c3ccnn3C(C)C)c2)cc1 [Example 10, N-tert-Butyl-3-(4-propan-2-yl-phenyl)-5-(2-propan-2-yl-pyrazol-3-yl)-benzamide]"
260,163,"Cc1ccc(-c2cc(C(=O)NC(C)(C)C)cc(-c3ccnn3C(C)C)c2)cc1 [Example 9, N-tert-Butyl-3-(4-methylphenyl)-5-(2-propan-2-yl-pyrazol-3-yl)-benzamide]"
